# Results: patent publication US12448369B2 (Edgewise Therapeutics, Inc., priority 2023, dated 2025)
# Assays:
# [1] = biological target: T1, Porcine ventricle myofibrils (ventricular myosin ATPase) (Sus scrofa, UniProt P79293); assay: Myofibril ATPase assay, porcine ventricle myofibrils; format: biochemical, porcine (Yucatan minipigs); conditions: porcine ventricle myofibrils
# T1 construct: Myofibrils from porcine cardiac muscle was isolated from the left ventricle of Yucatan minipigs; tissue Exemplar Genetics; host or cells: left ventricle of Yucatan minipigs, myofibrils prepared in house
# How it was run: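 Read-out: A340 kinetic, NADH consumption coupled to ADP via PK-LDH, 75 min. Yucatan minipig LV myofibrils, pCa buffer (PIPES/CaCl2/EGTA, pH 7.0). Linear-regression slope (mAU/min), vehicle = 100%, 4PL fit; Y75 or Y125 reported.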
# [2] = system: Porcine atria myofibrils (atrial myosin ATPase); assay: Myofibril ATPase assay, porcine atria myofibrils; format: biochemical; conditions: porcine atria myofibrils
# How it was run: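 Values are Y75 (concentration cutting ATPase activity to 75% of vehicle) or Y125 (raising it to 125%), taken from 4-parameter logistic fits. Rates come from NADH disappearance at 340 nm in a PK/LDH-coupled assay with porcine atria myofibrils.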
# [3] = system: Rabbit Psoas myofibrils (skeletal myosin ATPase); assay: Myofibril ATPase assay, rabbit psoas (skeletal) myofibrils; format: biochemical; conditions: rabbit psoas myofibrils
# How it was run: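 Myofibrils homogenized in Triton X-100 buffer were assayed in pH 7.0 PIPES with defined Ca2+/EGTA. Myosin-driven ADP formation was coupled to NADH oxidation, with depletion monitored at 340 nm. Each value is the concentration that lowers activity to 75% of vehicle or, for activators, raises it to 125%.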
# [4] = Y75 value (75% activity relative to no compound)
# T1 sequence (P79293 whole entry): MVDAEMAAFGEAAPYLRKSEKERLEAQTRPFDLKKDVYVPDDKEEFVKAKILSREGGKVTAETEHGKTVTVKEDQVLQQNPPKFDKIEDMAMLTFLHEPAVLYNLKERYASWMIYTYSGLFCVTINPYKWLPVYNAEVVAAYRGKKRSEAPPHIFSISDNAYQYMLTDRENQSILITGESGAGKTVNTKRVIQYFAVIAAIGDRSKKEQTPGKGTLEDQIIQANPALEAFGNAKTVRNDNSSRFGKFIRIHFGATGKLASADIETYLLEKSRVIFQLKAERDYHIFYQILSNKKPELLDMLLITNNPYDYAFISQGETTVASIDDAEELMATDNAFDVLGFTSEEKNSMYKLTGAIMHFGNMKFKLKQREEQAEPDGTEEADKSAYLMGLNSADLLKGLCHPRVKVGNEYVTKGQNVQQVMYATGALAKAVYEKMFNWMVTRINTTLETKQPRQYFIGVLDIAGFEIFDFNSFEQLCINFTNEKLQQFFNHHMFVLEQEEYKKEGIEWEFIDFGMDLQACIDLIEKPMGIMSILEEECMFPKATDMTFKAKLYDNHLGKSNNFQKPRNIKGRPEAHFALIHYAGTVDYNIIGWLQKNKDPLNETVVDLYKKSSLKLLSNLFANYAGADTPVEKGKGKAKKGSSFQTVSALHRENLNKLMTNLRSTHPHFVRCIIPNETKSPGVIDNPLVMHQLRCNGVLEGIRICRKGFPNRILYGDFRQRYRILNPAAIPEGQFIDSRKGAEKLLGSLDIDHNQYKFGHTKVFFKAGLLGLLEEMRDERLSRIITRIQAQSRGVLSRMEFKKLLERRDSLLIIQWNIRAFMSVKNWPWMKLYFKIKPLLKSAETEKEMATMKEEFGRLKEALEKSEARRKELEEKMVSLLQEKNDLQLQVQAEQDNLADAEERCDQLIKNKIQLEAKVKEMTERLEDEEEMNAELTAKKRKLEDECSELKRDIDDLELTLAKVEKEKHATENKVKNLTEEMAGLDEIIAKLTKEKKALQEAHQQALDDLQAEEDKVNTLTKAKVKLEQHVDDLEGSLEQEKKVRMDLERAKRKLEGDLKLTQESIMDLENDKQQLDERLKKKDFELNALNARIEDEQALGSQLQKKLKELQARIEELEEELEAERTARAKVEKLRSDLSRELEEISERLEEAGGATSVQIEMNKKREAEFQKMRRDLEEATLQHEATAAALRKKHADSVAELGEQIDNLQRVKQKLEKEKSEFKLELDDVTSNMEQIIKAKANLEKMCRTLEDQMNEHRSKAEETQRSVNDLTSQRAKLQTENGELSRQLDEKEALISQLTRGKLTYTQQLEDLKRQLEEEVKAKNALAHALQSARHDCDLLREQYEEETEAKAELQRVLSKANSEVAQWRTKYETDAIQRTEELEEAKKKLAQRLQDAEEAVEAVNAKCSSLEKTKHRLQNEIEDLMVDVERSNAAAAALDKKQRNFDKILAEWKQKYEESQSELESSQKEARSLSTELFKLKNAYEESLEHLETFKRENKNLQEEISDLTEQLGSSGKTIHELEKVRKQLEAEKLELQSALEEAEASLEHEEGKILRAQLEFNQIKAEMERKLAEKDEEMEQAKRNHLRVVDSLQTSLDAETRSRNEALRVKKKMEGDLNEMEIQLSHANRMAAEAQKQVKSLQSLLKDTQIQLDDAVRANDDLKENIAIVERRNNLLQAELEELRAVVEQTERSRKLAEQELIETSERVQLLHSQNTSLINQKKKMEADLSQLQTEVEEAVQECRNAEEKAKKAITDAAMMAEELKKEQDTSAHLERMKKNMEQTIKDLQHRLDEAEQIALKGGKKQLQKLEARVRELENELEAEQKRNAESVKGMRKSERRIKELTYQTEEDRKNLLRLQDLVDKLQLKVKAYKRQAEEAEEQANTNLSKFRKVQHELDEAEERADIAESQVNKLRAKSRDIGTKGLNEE
SMILES,Ventricular EC25 ([1]; Y75 value (no ‡ mark)) [µM],Atrial EC25 ([2]; Y75 value (no ‡ mark)) [µM],Skeletal EC25 ([3]; Y75 value (no ‡ mark)) [µM],Ventricular EC25 ([1]; Y75 value) [µM],"Atrial EC25 [2, 4] [µM]",Skeletal EC25 ([3]; Y75 value) [µM]
Cc1c(CC(=O)N[C@@H](C)c2ccc(F)cc2F)c(=O)[nH]c2cccc(F)c12 [compound 130],0.15,0.02,0.03,–,–,–
C[C@H](NC(=O)Cc1cc2c(F)cccc2[nH]c1=O)c1ccc(F)cc1F [compound 131],0.81,0.07,0.02,–,–,–
CC(C(=O)N[C@@H](C)c1ccc(F)cc1F)c1cc2ccccc2[nH]c1=O (stereo partly drawn) [compound 134],100.00,100.00,7.99,–,–,–
Cc1c(CC(=O)N[C@@H](C)c2ccc(F)cc2F)c(=O)[nH]c2ccccc12 [compound 135],0.40,0.10,0.03,–,–,–
C[C@H](NC(=O)Cc1cc2ccccc2[nH]c1=O)c1ccc(F)cc1F [compound 137],3.33,1.12,0.19,–,–,–
C[C@@H](NC(=O)Cc1c(C2CC2)c2cnccc2[nH]c1=O)c1ccc(C#N)cn1 [compound 140],–,–,–,100.00,100.00,42.18
C[C@H](NC(=O)Cc1c(C2CC2)c2cnccc2[nH]c1=O)c1ccc(C#N)cn1 [compound 141],–,–,–,100.00,100.00,8.74
C[C@@H](NC(=O)Cc1c(C2CC2)c2cnccc2[nH]c1=O)c1ncc(C#N)cc1F [compound 142],–,–,–,100.00,100.00,100.00
C[C@H](NC(=O)Cc1c(C2CC2)c2cnccc2[nH]c1=O)c1ncc(C#N)cc1F [compound 143],–,–,–,6.56,0.96,0.61
Cc1c(CC(=O)N[C@@H](C)c2ncc(C#N)cc2F)c(=O)[nH]c2ccc(C(F)(F)F)nc12 [compound 147],–,–,–,0.12,0.02,0.06
Cc1nccc2[nH]c(=O)c(CC(=O)N[C@@H](C)c3ccc(F)cc3F)c(F)c12 [compound 150],–,–,–,0.68,0.06,0.09
Cc1nccc2[nH]c(=O)c(CC(=O)N[C@H](C)c3ccc(C#N)cc3F)c(C#N)c12 [compound 153],–,–,–,100.00,19.40,3.09
Cc1c(CC(=O)N[C@H](C)c2ccc(C#N)cn2)c(=O)[nH]c2ccnc(C(F)(F)F)c12 [compound 155],–,–,–,62.81,6.06,1.24
Cc1c(CC(=O)N[C@@H](C)c2ccc(C#N)cn2)c(=O)[nH]c2ccnc(C(F)(F)F)c12 [compound 156],–,–,–,3.12,0.33,0.21
Cc1c(CC(=O)N[C@H](C)c2ccc(C#N)cn2)c(=O)[nH]c2ccnc(C#N)c12 [compound 157],–,–,–,26.29,13.10,0.62
Cc1c(CC(=O)N[C@@H](C)c2ccc(C#N)cn2)c(=O)[nH]c2ccnc(C#N)c12 [compound 158],–,–,–,1.80,0.43,0.06
Cc1nccc2[nH]c(=O)c(CC(=O)N[C@@H](C)c3ccc(F)cc3F)c(C#N)c12 [compound 159],–,–,–,6.35,1.17,0.11
COC[C@H](NC(=O)Cc1c(C)c2c(C#N)nccc2[nH]c1=O)c1ncc(F)cc1F [compound 160],–,–,–,2.23,0.13,0.03
Cc1c(CC(=O)N[C@H](CO)c2ncc(C#N)cc2F)c(=O)[nH]c2cnnc(C#N)c12 [compound 163],–,–,–,100.00,0.94,12.34
Cc1c(CC(=O)N[C@@H](CO)c2ncc(C#N)cc2F)c(=O)[nH]c2cnnc(C#N)c12 [compound 164],–,–,–,22.06,2.51,1.12
Cc1c(CC(=O)N[C@H](C)c2ncc(C#N)cc2F)c(=O)[nH]c2ccc(O)nc12 [compound 165],–,–,–,100.00,2.77,47.80
Cc1c(CC(=O)N[C@@H](C)c2ncc(C#N)cc2F)c(=O)[nH]c2ccc(O)nc12 [compound 166],–,–,–,100.00,1.91,3.22
COC[C@H](NC(=O)Cc1c(C)c2c(C)nccc2[nH]c1=O)c1ccc(C#N)cc1F [compound 169],–,–,–,10.52,1.06,0.15
COC[C@H](NC(=O)Cc1c(C)c2c(C#N)nccc2[nH]c1=O)c1ccc(C#N)cc1F [compound 170],–,–,–,1.02,0.08,0.03
Cc1c(CC(=O)N[C@H](C)c2ccc(C#N)cc2F)c(=O)[nH]c2cnnc(C#N)c12 [compound 171],–,–,–,100.00,22.46,15.02
Cc1c(CC(=O)N[C@@H](C)c2ccc(C#N)cc2F)c(=O)[nH]c2cnnc(C#N)c12 [compound 172],–,–,–,3.78,0.10,0.04
Cc1c(CC(=O)N[C@H](CO)c2ccc(C#N)cc2F)c(=O)[nH]c2cnnc(C#N)c12 [compound 175],–,–,–,100.00,100.00,100.00
CC(=O)N1C[C@H](NC(=O)Cc2c(C)c3c(C)nccc3[nH]c2=O)c2c(F)cc(F)cc21 [compound 206],–,–,–,100.00,100.00,0.40
Cc1c(CC(=O)N[C@H](CO)c2ccc(F)cc2F)c(=O)[nH]c2ccc(C#N)nc12 [compound 210],–,–,–,100.00,30.20,7.04

# Results, then the compound that gave them:
Ventricular EC25 ([1]; Y75 value (no ‡ mark)) [µM],Atrial EC25 ([2]; Y75 value (no ‡ mark)) [µM],Skeletal EC25 ([3]; Y75 value (no ‡ mark)) [µM],Ventricular EC25 ([1]; Y75 value) [µM],"Atrial EC25 [2, 4] [µM]",Skeletal EC25 ([3]; Y75 value) [µM],SMILES
–,–,–,3.02,1.99,2.55,Cc1nccc2[nH]c(=O)c(CC(=O)N[C@H](C)c3ccc(C#N)cc3F)c(F)c12 [compound 148]
–,–,–,0.10,0.06,0.02,Cc1nccc2[nH]c(=O)c(CC(=O)N[C@@H](C)c3ccc(C#N)cc3F)c(F)c12 [compound 149]
–,–,–,0.87,0.44,0.11,Cc1nccc2[nH]c(=O)c(CC(=O)N[C@H](C)c3ccc(C#N)cc3F)c(Cl)c12 [compound 151]
–,–,–,0.09,0.05,0.01,Cc1nccc2[nH]c(=O)c(CC(=O)N[C@@H](C)c3ccc(C#N)cc3F)c(Cl)c12 [compound 152]
–,–,–,0.54,0.18,0.04,Cc1nccc2[nH]c(=O)c(CC(=O)N[C@@H](C)c3ccc(C#N)cc3F)c(C#N)c12 [compound 154]
–,–,–,1.19,0.34,0.11,Cc1c(CC(=O)N[C@H](C)c2ccc(C#N)cc2F)c(=O)[nH]c2ccnc(C(F)(F)F)c12 [compound 161]
–,–,–,0.11,0.13,0.02,Cc1c(CC(=O)N[C@@H](C)c2ccc(C#N)cc2F)c(=O)[nH]c2ccnc(C(F)(F)F)c12 [compound 162]
–,–,–,67.50,100.00,13.03,Cc1c(CC(=O)N[C@H](CO)c2ccc(F)cc2F)c(=O)[nH]c2ccnc(OC3CC3)c12 [compound 199]
–,–,–,100.00,3.03,0.19,Cc1c(CC(=O)N[C@@H](CO)c2ccc(F)cc2F)c(=O)[nH]c2ccnc(OC3CC3)c12 [compound 200]
–,–,–,100.00,100.00,1.02,Cc1c(CC(=O)N[C@H](C)c2ccc(C#N)cc2F)c(=O)[nH]c2ccnc(OC3CC3)c12 [compound 201]
–,–,–,0.83,0.11,0.11,Cc1c(CC(=O)N[C@@H](C)c2ccc(C#N)cc2F)c(=O)[nH]c2ccnc(OC3CC3)c12 [compound 202]
–,–,–,100.00,100.00,1.10,Cc1c(CC(=O)N[C@H](CO)c2ccc(C#N)cc2F)c(=O)[nH]c2ccnc(OC3CC3)c12 [compound 203]
–,–,–,7.78,0.47,0.07,Cc1c(CC(=O)N[C@@H](CO)c2ccc(C#N)cc2F)c(=O)[nH]c2ccnc(OC3CC3)c12 [compound 204]
